Measured values reported in patent publication US12649722B2, “Herbicidal cinnoline derivatives” (SYNGENTA CROP PROTECTION AG, priority 2020, dated 2026).

Tests used:
Type in all cases: in vivo
ABUTH [1] = assay: Pre-emergence Test, ABUTH; settings: 1000 g/ha, evaluated after 13 days
[2] = tested on: Amaranthus retoflexus (AMARE); assay: Post-emergence Test, AMARE; settings: sprayed after 8 days cultivation, 1000 g/ha, evaluated after 13 days
Summary of the method: (§1)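 Pots sown with AMARE, SOLNI, SETFA, LOLPE, ECHCG, IPOHE, kept in glasshouse (24/16 °C, 14 h light, 65% humidity), sprayed at 1000 g/ha unless stated, in acetone/water 50:50 with 0.5% Tween 20. Damage scored after 13 days on a 0–5 scale (5=81–100%, 0=0%).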

Setaria faberi (SETFA) [3] = assay: Pre-emergence Test, SETFA; settings: 1000 g/ha, evaluated after 13 days
[4] = tested on: Amaranthus retoflexus (AMARE); assay: Pre-emergence Test, AMARE; settings: 1000 g/ha, evaluated after 13 days
Solarium nigrum (SOLNI) [5] = assay: Post-emergence Test, SOLNI; settings: sprayed after 8 days cultivation, 1000 g/ha, evaluated after 13 days
Procedure: (§2) Seeds of a variety of test species are sown in standard soil in pots (Amaranthus retoflexus (AMARE), Solarium nigrum (SOLNI), Setaria faberi (SETFA), Lolium perenne (LOLPE), Echinochloa crus-galli (ECHCG), Ipornoea hederacea (IPOHE)). After 8 days cultivation under controlled conditions in a glasshouse (at 24° C./16° C., day/night; 14 hours light; 65% humidity), the plants are sprayed with an aqueous spray solution derived from the formulation of the technical active ingredient in acetone/water (50:50) solution containing 0.5% Tween 20 (polyoxyethylene sorbitan monolaurate, CAS RN 9005-64-5). Compounds are applied at 1000 g/ha unless otherwise stated. The test plants are then grown in a glasshouse under controlled conditions in a glasshouse (at 24° C./16° C., day/night; 14 hours light; 65% humidity) and watered twice daily. After 13 days the test is evaluated for the percentage damage caused to the plant. The biological activities are shown in the following table on a five-point scale (5=81-100%; 4=61-80%; 3=41-60%; 2=21-40%; 1=10-20%; 0=0%; −=not tested).

[6] = tested on: Ipornoea hederacea (IPOHE); assay: Pre-emergence Test, IPOHE; settings: 1000 g/ha, evaluated after 13 days
[7] = tested on: Echinochloa crus-galli (ECHCG); assay: Pre-emergence Test, ECHCG; settings: 1000 g/ha, evaluated after 13 days
ABUTH [8] = assay: Post-emergence Test, ABUTH; settings: sprayed after 8 days cultivation, 1000 g/ha, evaluated after 13 days
Lolium perenne (LOLPE) [9] = assay: Post-emergence Test, LOLPE; settings: sprayed after 8 days cultivation, 1000 g/ha, evaluated after 13 days
Procedure: as §2

Setaria faberi (SETFA) [10] = assay: Post-emergence Test, SETFA; settings: sprayed after 8 days cultivation, 1000 g/ha, evaluated after 13 days
Summary of the method: as §1

Solarium nigrum (SOLNI) [11] = assay: Pre-emergence Test, SOLNI; settings: 1000 g/ha, evaluated after 13 days
ZEAMX [12] = assay: Pre-emergence Test, ZEAMX; settings: 1000 g/ha, evaluated after 13 days
[13] = tested on: Echinochloa crus-galli (ECHCG); assay: Post-emergence Test, ECHCG; settings: sprayed after 8 days cultivation, 1000 g/ha, evaluated after 13 days
Summary of the method: as §1

Lolium perenne (LOLPE) [14] = assay: Pre-emergence Test, LOLPE; settings: 1000 g/ha, evaluated after 13 days
ZEAMX [15] = assay: Post-emergence Test, ZEAMX; settings: sprayed after 8 days cultivation, 1000 g/ha, evaluated after 13 days
[16] = tested on: Ipornoea hederacea (IPOHE); assay: Post-emergence Test, IPOHE; settings: sprayed after 8 days cultivation, 1000 g/ha, evaluated after 13 days
Summary of the method: as §1

Row | SMILES | percentage damage caused to the plant, ABUTH (ABUTH [1]) | percentage damage caused to the plant, AMARE [2] | percentage damage caused to the plant, SETFA (Setaria faberi (SETFA) [3]) | percentage damage caused to the plant, AMARE [4] | percentage damage caused to the plant, SOLNI (Solarium nigrum (SOLNI) [5]) | percentage damage caused to the plant, IPOHE [6] | percentage damage caused to the plant, ECHCG [7] | percentage damage caused to the plant, ABUTH (ABUTH [8]) | percentage damage caused to the plant, LOLPE (Lolium perenne (LOLPE) [9]) | percentage damage caused to the plant, SETFA (Setaria faberi (SETFA) [10]) | percentage damage caused to the plant, SOLNI (Solarium nigrum (SOLNI) [11]) | percentage damage caused to the plant, ZEAMX (ZEAMX [12]) | percentage damage caused to the plant, ECHCG [13] | percentage damage caused to the plant, LOLPE (Lolium perenne (LOLPE) [14]) | percentage damage caused to the plant, ZEAMX (ZEAMX [15]) | percentage damage caused to the plant, IPOHE [16]
1 | C=C(OCC)c1cccc2c1c(=O)c(C(=O)OC)nn2-c1ccc(OC(F)(F)F)cc1 [Compound P3, methyl 5-(1-ethoxyvinyl)-4-oxo-1-[4-(trifluoromethoxy)phenyl] cinnoline-3-carboxylate] | 3 (3=41-60%) | 1 (1=10-20%) | 5 (5=81-100%) | 0 (0=0%) | 4 (4=61-80%) | 2 (2=21-40%) | 4 (4=61-80%) | 3 (3=41-60%) | 4 (4=61-80%) | 4 (4=61-80%) | 2 (2=21-40%) | 4 (4=61-80%) | 4 (4=61-80%) | 4 (4=61-80%) | 3 (3=41-60%) | 3 (3=41-60%)
2 | N#Cc1cccc2c1c(=O)c(C(=O)O)nn2-c1ccc(OC(F)(F)F)cc1 [Compound P8, 5-cyano-4-oxo-1-[4-(trifluoromethoxy)phenyl] cinnoline-3-carboxylic acid] | 1 (1=10-20%) | 4 (4=61-80%) | 5 (5=81-100%) | 2 (2=21-40%) | 3 (3=41-60%) | 1 (1=10-20%) | 5 (5=81-100%) | 1 (1=10-20%) | 4 (4=61-80%) | 4 (4=61-80%) | 1 (1=10-20%) | 0 (0=0%) | 4 (4=61-80%) | 4 (4=61-80%) | 2 (2=21-40%) | 4 (4=61-80%)
3 | COC(=O)c1nn(-c2ccc(OC(F)(F)F)cc2)c2cccc(C(C)=O)c2c1=O [Compound P9, methyl 5-acetyl-4-oxo-1-[4-(trifluoromethoxy)phenyl] cinnoline-3-carboxylate] | 3 (3=41-60%) | 1 (1=10-20%) | 5 (5=81-100%) | 1 (1=10-20%) | 4 (4=61-80%) | 3 (3=41-60%) | 5 (5=81-100%) | 3 (3=41-60%) | 4 (4=61-80%) | 4 (4=61-80%) | 3 (3=41-60%) | 4 (4=61-80%) | 4 (4=61-80%) | 4 (4=61-80%) | 4 (4=61-80%) | 2 (2=21-40%)
